The text below walks through data of US9365583B2, “Substituted pyrazoles and uses thereof” (Genentech, Inc., priority 2013, dated 2016).

For the experiment, the target named is T1, N-terminally GST-tagged DLK (catalytic domain amino acid 1-520) (Homo sapiens, UniProt Q12852).
T1 construct: N-terminally GST-tagged DLK (catalytic domain amino acid 1-520); purchased Carna Bioscience
T1 sequence (Q12852 1-520): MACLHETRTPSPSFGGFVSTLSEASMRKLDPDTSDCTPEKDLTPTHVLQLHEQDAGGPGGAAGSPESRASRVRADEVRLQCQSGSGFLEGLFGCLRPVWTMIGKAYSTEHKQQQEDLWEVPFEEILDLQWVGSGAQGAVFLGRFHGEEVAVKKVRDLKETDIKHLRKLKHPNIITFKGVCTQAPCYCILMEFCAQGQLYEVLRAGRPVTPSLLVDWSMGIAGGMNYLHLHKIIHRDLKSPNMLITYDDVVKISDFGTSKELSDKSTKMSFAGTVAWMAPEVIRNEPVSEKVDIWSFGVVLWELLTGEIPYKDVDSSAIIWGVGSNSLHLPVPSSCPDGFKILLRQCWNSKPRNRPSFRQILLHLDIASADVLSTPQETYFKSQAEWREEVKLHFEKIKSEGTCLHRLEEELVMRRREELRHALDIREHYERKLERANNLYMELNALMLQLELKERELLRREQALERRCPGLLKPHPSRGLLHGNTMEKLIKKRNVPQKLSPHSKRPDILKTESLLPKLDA
Nature of the experiment: DLK TR-FRET inhibition assay. It is filed as biochemical. As to conditions: 5 nM GST-DLK, 40 nM HIS-MKK4 K131M substrate, 30 μM ATP, 60 minutes at ambient temperature. An outline of the steps: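 5 nM GST-DLK (aa 1-520), 40 nM HIS-MKK4 K131M and 30 μM ATP reacted 60 min at ambient temperature in HEPES pH 7.5 buffer with 10 mM MgCl2, compound 1:3 serially diluted from 20 uM. TR-FRET detection of phospho-MKK4 used Eu-cryptate anti-phospho-MKK4 plus D2 anti-HIS, read after 3 h (665/615 nm).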
Molecule `CC(C)n1nc(-c2cnc(N)c(OC(F)(F)F)c2)cc1[C@H]1[C@@H]2C[C@H](N3CCCOCC3)C[C@@H]21` [compound 101, 5-(5-((1R,3r,5S,6r)-3-(1,4-oxazepan-4-yl)bicyclo[3.1.0]hexan-6-yl)-1-isopropyl-1H-pyrazol-3-yl)-3-(trifluoromethoxy)pyridin-2-amine] came in with a Ki of 0.44 nM.
With `COC1CN([C@@H]2C[C@@H]3[C@H](C2)[C@H]3c2cc(-c3cnc(N)c(OC(F)F)c3)nn2CC2CC2)C1` [compound 155, 5-(1-(cyclopropylmethyl)-5-((1R,3s,5S,6r)-3-(3-methoxyazetidin-1-yl)bicyclo[3.1.0]hexan-6-yl)-1H-pyrazol-3-yl)-3-(difluoromethoxy)pyridin-2-amine], the Ki worked out at 3.3 nM.
`CC(C)n1nc(-c2cnc(N)c(OC(F)(F)F)c2)cc1[C@H]1[C@@H]2C[C@H](N3CC4(CN(C)CCO4)C3)C[C@@H]21` [compound 220, 5-(1-isopropyl-5-((1R,3r,5S,6r)-3-(8-methyl-5-oxa-2,8-diazaspiro [3.5]nonan-2-yl)bicyclo[3.1.0]hexan-6-yl)-1H-pyrazol-3-yl)-3-(trifluoromethoxy)pyridin-2-amine] registered a Ki of 2.1 nM.
`COCCO[C@H]1C[C@@H]2[C@H](C1)[C@H]2c1cc(-c2cnc(N)c(C(F)(F)F)c2)nn1C(C)C` [compound 272, 5-(1-isopropyl-5-((1R,3r,5S,6r)-3-(2-methoxyethoxy)bicyclo [3.1.0]hexan-6-yl)-1H-pyrazol-3-yl)-3-(trifluoromethyl)pyridin-2-amine]: the affinity corresponds to a Ki of 5.6 nM.
The molecule `CC(C)n1nc(-c2cnc(N)c(C(F)(F)F)c2)cc1[C@H]1[C@@H]2C[C@H](N3CCN[C@@H](C)C3)C[C@@H]21` [compound 234, 5-(1-isopropyl-5-((1R,3r,5S,6S)-3-((S)-3-methylpiperazin-1-yl)bicyclo[3.1.0]hexan-6-yl)-1H-pyrazol-3-yl)-3-(trifluoromethyl) pyridin-2-amine] yielded a Ki of 4.9 nM.
With `CC(C)n1nc(-c2cnc(N)c(OC(F)F)c2)cc1[C@H]1[C@@H]2C[C@H](N3CCCN(C)CC3)C[C@@H]21` [compound 208, 3-(difluoromethoxy)-5-(1-isopropyl-5-((1R,3r,5S,6r)-3-(4-methyl-1,4-diazepan-1-yl)bicyclo[3.1.0]hexan-6-yl)-1H-pyrazol-3-yl) pyridin-2-amine], the Ki is 1.5 nM.
The molecule `Nc1ncc(-c2cc([C@H]3[C@@H]4C[C@@H](N5CCOCC5)C[C@@H]43)n(C3CCC3)n2)cc1OC(F)F` [compound 131, 5-(1-cyclobutyl-5-((1R,3s,5S,6r)-3-morpholinobicyclo[3.1.0]hexan-6-yl)-1H-pyrazol-3-yl)-3-(difluoromethoxy)pyridin-2-amine] gave a Ki of 3.5 nM.
`CC(C)n1nc(-c2cnc(N)c(C(F)(F)F)c2)cc1[C@H]1[C@@H]2C[C@H](N(C)CC3COC3)C[C@@H]21` [compound 20, 5-(1-isopropyl-5-((1R,3r,5S,6r)-3-(methyl(oxetan-3-ylmethyl)amino)bicyclo[3.1.0]hexan-6-yl)-1H-pyrazol-3-yl)-3-(trifluoro-methyl)pyridin-2-amine] showed a Ki of 4.39 nM.
`CC(C)n1nc(-c2cnc(N)c(C(F)(F)F)c2)cc1[C@H]1[C@@H]2C[C@H](N(C)CCS(C)(=O)=O)C[C@@H]21` [compound 8, 5-(1-isopropyl-5-((1R,3r,5S,6r)-3-(methyl(2-(methylsulfonyl)ethyl)amino)bicyclo[3.1.0]hexan-6-yl)-1H-pyrdzol-3-yl)-3-(trifluoromethyl)pyridin-2-amine]: the Ki was determined as 3.36 nM.
In the case of `CC(C)n1nc(-c2cnc(N)c(C(F)(F)F)c2)cc1[C@H]1[C@@H]2C[C@H](N3CCN(C)C4(COC4)C3)C[C@@H]21` [compound 179, 5-(1-isopropyl-5-((1R,3r,5S,6r)-3-(5-methyl-2-oxa-5,8-diazaspiro [3.5]nonan-8-yl)bicyclo[3.1.0]hexan-6-yl)-1H-pyrazol-3-yl)-3-(trifluoromethyl)pyridin-2-amine], the Ki is 4.3 nM.
For `Nc1ncc(-c2cc([C@H]3[C@@H]4C[C@@H](N5CCOCC5)C[C@@H]43)n(CC3CC3)n2)cc1OC(F)(F)F` [compound 292, 5-(1-(cyclopropylmethyl)-5-((1R,3s,5S,6r)-3-morpholinobicyclo [3.1.0]hexan-6-yl)-1H-pyrazol-3-yl)-3-(trifluoromethoxy) pyridin-2-amine], the Ki was 4.6 nM.
For the molecule `COC1CN([C@H]2C[C@@H]3[C@H](C2)[C@H]3c2cc(-c3cnc(N)c(OC(F)(F)F)c3)nn2C(C)C)C1` [compound 39, 5-(1-isopropyl-5-((1R,3r,5S,6r)-3-(3-methoxyazetidin-1-yl)bicyclo[3.1.0]hexan-6-yl)-1H-pyrazol-3-yl)-3-(trifluoromethoxy) pyridin-2-amine], the Ki is 2.06 nM.
For the molecule `COC1CN([C@H]2C[C@@H]3[C@H](C2)[C@H]3c2cc(-c3cnc(N)c(C(F)(F)F)c3)nn2CC(F)F)C1` [compound 144, 5-(1-(2,2-difluoroethyl)-5-((1R,3r,5S,6r)-3-(3-methoxyazetidin-1-yl)bicyclo[3.1.0]hexan-6-yl)-1H-pyrazol-3-yl)-3-(trifluoro-methyl)pyridin-2-amine], the affinity corresponds to a Ki of 2.8 nM.
Molecule `CC(C)n1nc(-c2cnc(N)c(C(F)(F)F)c2)cc1[C@H]1[C@@H]2CC(N3CC4COCC4C3)C[C@@H]21` (single isomer, unassigned) [compound 277] returned a Ki of 2.3 nM.
In turn, `CC(C)n1nc(-c2cnc(N)c(OC(F)F)c2)cc1[C@H]1[C@@H]2C[C@@H](NCC(F)(F)F)C[C@@H]21` [compound 121, 3-(difluoromethoxy)-5-(1-isopropyl-5-((1R,3s,5S,6r)-3-((2,2,2-trifluoroethyl)amino)bicyclo [3.1.0]hexan-6-yl)-1H-pyrazol-3-yl) pyridin-2-amine] registered a Ki of 6.68 nM.
`CC(C)n1nc(-c2cnc(N)c(C(F)(F)F)c2)cc1C1[C@H]2CC(N3CCOCC3)C[C@@H]12` (stereo partly drawn) [compound 76, 5-(1-isopropyl-5-((1R,3s,5S,6r)-3-morpholinobicyclo[3.1.0]hexan-6-yl)-1H-pyrazol-3-yl)-3-(trifluoromethyl)pyridin-2-amine] returned a Ki of 2.17 nM.
Next, `CC(C)n1nc(-c2cnc(N)c(OC(F)F)c2)cc1[C@H]1[C@@H]2C[C@@H](N3CCO[C@H](C)C3)C[C@@H]21` [compound 74, 3-(difluoromethoxy)-5-(1-isopropyl-5-((1R,3s,5S,6R)-3-((R)-2-methylmorpholino)bicyclo[3.1.0]hexan-6-yl)-1H-pyrazol-3-yl) pyridin-2-amine]: 3.75 nM.
To `CC(C)n1nc(-c2cnc(N)c(C(F)(F)F)c2)cc1[C@H]1[C@@H]2CC3(C[C@@H]21)CN(C)CCO3` (single isomer, unassigned) [compound 197] belongs 1.3 nM.
`CC(C)n1nc(-c2cnc(N)c(OC(F)(F)F)c2)cc1[C@H]1[C@@H]2C[C@@H](N3CC4(CCCO4)C3)C[C@@H]21` [compound 221, 5-(5-((1R,3s,5S,6r)-3-(5-oxa-2-azaspiro[3.4]octan-2-yl)bicyclo [3.1.0]hexan-6-yl)-1-isopropyl-1H-pyrazol-3-yl)-3-(trifluoromethoxy) pyridin-2-amine] had a Ki of 2 nM.
Next, `CC(C)n1nc(-c2cnc(N)c(OC(F)F)c2)cc1[C@H]1[C@@H]2C[C@H](O)C[C@@H]21` [compound 4, (1R,3r,5S,6r)-6-(3-(6-amino-5-(difluoromethoxy)pyridin-3-yl)-1-isopropyl-1H-pyrazol-5-yl) bicyclo[3.1.0]hexan-3-ol]: 4.51 nM; `CC(C)n1nc(-c2cnc(N)c(OC(F)F)c2)cc1[C@H]1[C@@H]2CC(F)(CN(C)C)C[C@@H]21` (mixture of isomers) [compound 178, 3-(difluoromethoxy)-5-(5-((1R, 5S,6r)-3-((dimethylamino)methyl)-3-fluorobicyclo[3.1.0]hexan-6-yl)-1-isopropyl-1H-pyrazol-3-yl)pyridin-2-amine]: 2.1 nM; `CC(C)n1nc(-c2cnc(N)c(OC(F)(F)F)c2)cc1[C@H]1[C@@H]2C[C@@]3(CCN3CC(F)F)C[C@@H]21` [compound 147, 5-(5-((1′R,2r,5′S,6′r)-1-(2,2-difluoro-ethyl)spiro[azetidine-2,3′-bicyclo[3.1.0]hexan]-6′-yl)-1-isopropyl-1H-pyrazol-3-yl)-3-(trifluoro-methoxy)pyridin-2-amine]: 5.7 nM.
`CC(C)n1nc(-c2cnc(N)c(C(F)(F)F)c2)cc1[C@@H]1[C@H]2CC[C@H](O)[C@H]21` (single isomer, unassigned) [compound 143, 6-(3-(6-amino-5-trifluoromethylpyridin-3-yl)-1-isopropyl-1H-pyrazol-5-yl)bicyclo[3.1.0]hexan-2-ol]: the Ki amounted to 31.9 nM.
For the molecule “5-(1-isopropyl-5-((1R,3s,5S,6R)- 3-((R)-2-methylmorpholino) bicyclo[3.1.0]hexan-6-yl)-1H- pyrazol-3-yl)-3-(trifluoromethoxy) pyridin-2-amine [compound 11]”, the affinity, expressed as Ki, was 1.87 nM.
